From PMC6220272, “Scaffold-Hopping from Synthetic Drugs by Holistic Molecular Representation” (Scientific Reports, 2018) come the findings set out here.

Structures are written as SMILES.

Holding throughout (type): cell-based
For data set [1], the target named is T1, human RXRα ligand binding domain (Gal4 hybrid receptor) (Homo sapiens, UniProt P19793).
T1 construct: expressed in transfected cells; host or cells: HEK293T
T1 sequence (P19793 227-458 limits assumed): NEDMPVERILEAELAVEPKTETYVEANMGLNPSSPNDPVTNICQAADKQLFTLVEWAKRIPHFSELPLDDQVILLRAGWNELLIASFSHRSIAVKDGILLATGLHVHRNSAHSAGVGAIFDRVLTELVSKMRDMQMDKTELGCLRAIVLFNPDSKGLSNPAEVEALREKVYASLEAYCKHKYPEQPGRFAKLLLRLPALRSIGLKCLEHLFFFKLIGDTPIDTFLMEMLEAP
Kind of data set: Gal4 hybrid reporter gene assay RXRα. Conditions: HEK293T cells, n ≥ 4, read-out: RXRα EC50 ± SEM. The method, then: (§1) The 20 top-ranked synthetic compounds were selected and tested in vitro for their modulatory activity on RXR (Supplementary Table 1). Compounds were tested in specific hybrid reporter gene assays for RXRα, RXRβ and RXRγ modulation[39]–[41]. These assays rely on a constitutively expressed hybrid receptor composed of the respective human RXR ligand binding domain and the DNA binding domain of the Gal4 receptor from yeast. A Gal4 responsive firefly luciferase was used as reporter gene and constitutively expressed renilla luciferase served as internal control for transfection efficiency and test compound toxicity. All selected compounds were tested at 50 µM concentration on RXRα and for active compounds (Supplementary Fig. 1), dose response curves were recorded on all three RXR subtypes.
(§2) The Gal4 hybrid reporter gene assays were conducted as reported previously[39]–[41]. pFA-CMV-based constructs comprising the ligand binding domain of the human nuclear receptor in question were used as expression plasmids for the chimera receptors. pFR-Luc (Stratagene) served as reporter plasmid and pRL-SV40 (Promega) for normalization of transfection efficiency and cell growth. The assays were conducted in 96-well format in HEK293T cells that were cultured as described previously[39]–[41]. Transient transfection was carried out using Lipofectamine LTX reagent (Invitrogen) according to the manufacturer’s protocol. After transfection and incubation with test compounds (12–14 h), cells were assayed for luciferase activity using Dual-Glo™ Luciferase Assay System (Promega) according to the manufacturer’s protocol. Luminescence was measured with an Infinite M200 luminometer (Tecan Deutschland GmbH). All hybrid assays were validated with reference agonists (PPARα: GW7647; PPARγ: pioglitazone; PPARδ: L165,041; LXRα/β: T0901317; FXR: GW4064; RXRs: bexarotene; RARs: tretinoin; VDR: calcitriol; CAR: CITCO; PXR: SR12813) which yielded EC50 values in agreement with literature. The assays were conducted in duplicates with at least two independent repeats and for active compounds repeated without hybrid receptor coding DNA for every test compound at the highest tested concentration to exclude unspecific effects.
(§3) Supplementary Figure 2. Dose-response curves for RXRα activation. Compounds were tested in specific hybrid reporter gene assays for RXRα, RXRβ and RXRγ modulation.^1–3 These assays rely on a constitutively expressed hybrid receptor composed of the respective human RXR ligand binding domain and the DNA binding domain of the Gal4 receptor from yeast. A Gal4 responsive firefly luciferase was used as reporter gene and constitutively expressed renilla luciferase served as internal control for transfection efficiency and test compound toxicity. […]
Background: A reporter such as luciferase makes a cellular process visible.

The target in data set [2] is T2, human RXRβ ligand binding domain (Gal4 hybrid receptor) (Homo sapiens, UniProt P28702).
T2 construct: expressed in transfected cells; host or cells: HEK293T
T2 sequence (P28702 296-529 limits assumed): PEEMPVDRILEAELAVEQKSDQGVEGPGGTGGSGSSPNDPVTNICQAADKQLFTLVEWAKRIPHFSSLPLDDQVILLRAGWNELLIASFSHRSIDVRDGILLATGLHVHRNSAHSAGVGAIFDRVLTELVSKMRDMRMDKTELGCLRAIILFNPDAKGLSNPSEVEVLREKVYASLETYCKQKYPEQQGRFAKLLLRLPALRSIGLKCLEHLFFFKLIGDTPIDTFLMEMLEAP
Kind of data set: Gal4 hybrid reporter gene assay RXRβ. The conditions noted are these: HEK293T cells, n ≥ 4, read-out: RXRβ EC50 ± SEM. The method, then:
as §1, §2, §3

The subject of data set [3] is Gal4-responsive reporter gene. Kind of data set: Control experiment without Gal4-RXR hybrid receptor (reporter gene construct and renilla luciferase only). The method, then:
(§4) Moreover, 7 was characterized for its ability to modulate RXR target gene expression under more physiological conditions. Hepatoma cells (HepG2) were incubated with 7 (30 µM) or reference RXR agonist bexarotene (9, 1 µM) for eight hours and mRNA expression of RXR regulated genes ATP-binding cassette transporter A1 (ABCA1), angiopoietin like protein 4 (ANGPTL4) and apolipoprotein E (ApoE) was analysed by quantitative real-time PCR.
as §2, with “All hybrid assays were validated with reference agonists (PPARα: GW7647; PPARγ: pioglitazone; PPARδ: L165,041; LXRα/β: T0901317; FXR: GW4064; RXRs: bexarotene; RARs: tretinoin; VDR: calcitriol; CAR: CITCO; PXR: SR12813) which yielded EC50 values in agreement with literature. The assays were conducted in duplicates with at least two independent repeats and for active compounds repeated without hybrid receptor coding DNA for every test compound at the highest tested concentration to exclude unspecific effects.” left out

The target in the next data set is T3, PPARδ (Homo sapiens, UniProt Q03181).
T3 construct: expressed in transfected cells; host or cells: HEK293T
T3 sequence (Q03181 211-439 limits assumed): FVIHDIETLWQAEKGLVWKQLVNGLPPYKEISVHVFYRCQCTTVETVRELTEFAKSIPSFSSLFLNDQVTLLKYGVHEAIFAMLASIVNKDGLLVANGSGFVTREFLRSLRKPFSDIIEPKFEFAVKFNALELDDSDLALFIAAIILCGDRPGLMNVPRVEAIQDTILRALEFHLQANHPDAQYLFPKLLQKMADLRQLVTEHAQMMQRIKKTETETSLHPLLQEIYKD
Kind of data set: Gal4 hybrid reporter gene assay PPARδ (selectivity profiling). As for the experimental part:
as §4
as §2, with “All hybrid assays were validated with reference agonists (PPARα: GW7647; PPARγ: pioglitazone; PPARδ: L165,041; LXRα/β: T0901317; FXR: GW4064; RXRs: bexarotene; RARs: tretinoin; VDR: calcitriol; CAR: CITCO; PXR: SR12813) which yielded EC50 values in agreement with literature. The assays were conducted in duplicates with at least two independent repeats and for active compounds repeated without hybrid receptor coding DNA for every test compound at the highest tested concentration to exclude unspecific effects.” left out

In the next data set the target is T4, vitamin D receptor [VDR] (Homo sapiens, UniProt P11473).
T4 construct: expressed in transfected cells; host or cells: HEK293T
T4 sequence (P11473 127-423 limits assumed): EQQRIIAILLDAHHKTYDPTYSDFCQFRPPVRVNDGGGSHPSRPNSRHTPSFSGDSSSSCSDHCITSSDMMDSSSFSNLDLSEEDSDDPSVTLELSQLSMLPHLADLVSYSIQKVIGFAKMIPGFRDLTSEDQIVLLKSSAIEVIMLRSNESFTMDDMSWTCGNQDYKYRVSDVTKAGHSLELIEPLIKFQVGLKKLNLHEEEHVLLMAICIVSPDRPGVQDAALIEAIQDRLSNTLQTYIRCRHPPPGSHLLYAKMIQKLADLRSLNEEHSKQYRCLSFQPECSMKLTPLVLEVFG
Kind of data set: Gal4 hybrid reporter gene assay VDR (selectivity profiling). As for the experimental part:
as §4
as §2, with “All hybrid assays were validated with reference agonists (PPARα: GW7647; PPARγ: pioglitazone; PPARδ: L165,041; LXRα/β: T0901317; FXR: GW4064; RXRs: bexarotene; RARs: tretinoin; VDR: calcitriol; CAR: CITCO; PXR: SR12813) which yielded EC50 values in agreement with literature. The assays were conducted in duplicates with at least two independent repeats and for active compounds repeated without hybrid receptor coding DNA for every test compound at the highest tested concentration to exclude unspecific effects.” left out

The target of data set [4] is T5, pregnane X receptor [PXR] (Homo sapiens, UniProt O75469).
T5 construct: expressed in transfected cells; host or cells: HEK293T
T5 sequence (O75469 146-433 limits assumed): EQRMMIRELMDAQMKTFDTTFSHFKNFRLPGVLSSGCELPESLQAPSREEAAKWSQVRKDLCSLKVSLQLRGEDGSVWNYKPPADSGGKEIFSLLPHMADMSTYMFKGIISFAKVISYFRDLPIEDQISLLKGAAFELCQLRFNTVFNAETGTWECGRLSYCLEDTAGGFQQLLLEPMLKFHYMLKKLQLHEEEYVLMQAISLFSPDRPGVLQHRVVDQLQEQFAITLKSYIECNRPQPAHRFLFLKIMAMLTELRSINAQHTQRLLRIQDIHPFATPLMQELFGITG
The experiment in a line: Gal4 hybrid reporter gene assay PXR (selectivity profiling). The method, then: as §4
as §2, with “All hybrid assays were validated with reference agonists (PPARα: GW7647; PPARγ: pioglitazone; PPARδ: L165,041; LXRα/β: T0901317; FXR: GW4064; RXRs: bexarotene; RARs: tretinoin; VDR: calcitriol; CAR: CITCO; PXR: SR12813) which yielded EC50 values in agreement with literature. The assays were conducted in duplicates with at least two independent repeats and for active compounds repeated without hybrid receptor coding DNA for every test compound at the highest tested concentration to exclude unspecific effects.” left out

In the case of `CC(C)(C)c1cc(/C=N/NC(=O)c2ccc(N)cc2)cc(C(C)(C)C)c1` [Compound 7], the EC50 (as a rule, the concentration needed to bring the measured effect to its halfway point) came to 32.1 ± 0.9 µM in data set [1] and 25.1 ± 0.1 µM in data set [2]. In addition, the “reporter transactivation without hybrid receptor” value in data set [3] is on record as “no reporter transactivation”. Further, the “activity on PPARδ” value on PPARδ was “no activity”. Also, the “activity on VDR” value on vitamin D receptor [VDR] is listed as “no activity”. For the same compound, the “activity on PXR” value in data set [4] is “no activity”.
